Results from ChEMBL document CHEMBL4311954, “Synthesis, biological evaluation, and docking studies of new raloxifene sulfonate or sulfamate derivatives as inhibitors of nucleotide pyrophosphatase/phosphodiesterase” (Eur J Med Chem, 2019).
Counter-ions that a name gives are not always drawn.

Legend:
[1] = molecular target: T1, Ectonucleotide pyrophosphatase/phosphodiesterase family member 3 (Homo sapiens, UniProt O14638); assay: Inhibition of human NPP3 expressed in COS-7 cell membranes assessed as reduction in p-nitrophenol production using pNP-TMP as substrate preincubated with enzyme for 15 mins followed by substrate addition and measured after 35 mins
T1 sequence (O14638 whole entry): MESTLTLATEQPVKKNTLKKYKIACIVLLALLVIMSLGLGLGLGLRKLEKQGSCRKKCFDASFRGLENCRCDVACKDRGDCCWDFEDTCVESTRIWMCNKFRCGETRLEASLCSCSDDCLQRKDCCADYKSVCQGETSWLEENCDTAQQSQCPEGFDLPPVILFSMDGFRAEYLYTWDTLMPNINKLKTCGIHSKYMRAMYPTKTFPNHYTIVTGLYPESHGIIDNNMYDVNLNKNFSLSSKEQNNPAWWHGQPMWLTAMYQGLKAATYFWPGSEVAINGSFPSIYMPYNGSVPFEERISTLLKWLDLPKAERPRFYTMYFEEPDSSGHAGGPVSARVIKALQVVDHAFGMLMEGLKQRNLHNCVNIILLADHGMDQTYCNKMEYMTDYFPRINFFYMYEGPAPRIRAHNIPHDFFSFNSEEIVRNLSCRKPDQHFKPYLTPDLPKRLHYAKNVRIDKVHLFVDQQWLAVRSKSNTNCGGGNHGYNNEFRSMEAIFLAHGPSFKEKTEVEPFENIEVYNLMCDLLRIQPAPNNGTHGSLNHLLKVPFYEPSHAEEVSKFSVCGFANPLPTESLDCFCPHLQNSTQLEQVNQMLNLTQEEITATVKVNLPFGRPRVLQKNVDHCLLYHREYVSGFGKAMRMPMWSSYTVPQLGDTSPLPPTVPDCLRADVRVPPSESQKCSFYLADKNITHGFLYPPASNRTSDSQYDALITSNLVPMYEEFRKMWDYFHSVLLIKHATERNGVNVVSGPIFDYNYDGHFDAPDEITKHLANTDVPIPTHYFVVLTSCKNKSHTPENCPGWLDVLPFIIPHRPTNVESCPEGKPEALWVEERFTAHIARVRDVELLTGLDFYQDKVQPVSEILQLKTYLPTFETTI

[2] = system: HT-29; assay: Antiproliferative activity against human HT-29 cells assessed as cell viability at 10 uM after 72 hrs by MTT assay relative to control; format: functional; conditions: HT-29, 72 h, read-out: Activity
[3] = molecular target: T2, Ectonucleotide pyrophosphatase/phosphodiesterase family member 1 (Homo sapiens) (UniProt P22413); assay: Inhibition of human NPP1 expressed in COS-7 cell membranes assessed as reduction in p-nitrophenol production at 100 uM using pNP-TMP as substrate preincubated with enzyme for 15 mins followed by substrate addition and measured after 35 mins relative to control
T2 sequence (whole entry): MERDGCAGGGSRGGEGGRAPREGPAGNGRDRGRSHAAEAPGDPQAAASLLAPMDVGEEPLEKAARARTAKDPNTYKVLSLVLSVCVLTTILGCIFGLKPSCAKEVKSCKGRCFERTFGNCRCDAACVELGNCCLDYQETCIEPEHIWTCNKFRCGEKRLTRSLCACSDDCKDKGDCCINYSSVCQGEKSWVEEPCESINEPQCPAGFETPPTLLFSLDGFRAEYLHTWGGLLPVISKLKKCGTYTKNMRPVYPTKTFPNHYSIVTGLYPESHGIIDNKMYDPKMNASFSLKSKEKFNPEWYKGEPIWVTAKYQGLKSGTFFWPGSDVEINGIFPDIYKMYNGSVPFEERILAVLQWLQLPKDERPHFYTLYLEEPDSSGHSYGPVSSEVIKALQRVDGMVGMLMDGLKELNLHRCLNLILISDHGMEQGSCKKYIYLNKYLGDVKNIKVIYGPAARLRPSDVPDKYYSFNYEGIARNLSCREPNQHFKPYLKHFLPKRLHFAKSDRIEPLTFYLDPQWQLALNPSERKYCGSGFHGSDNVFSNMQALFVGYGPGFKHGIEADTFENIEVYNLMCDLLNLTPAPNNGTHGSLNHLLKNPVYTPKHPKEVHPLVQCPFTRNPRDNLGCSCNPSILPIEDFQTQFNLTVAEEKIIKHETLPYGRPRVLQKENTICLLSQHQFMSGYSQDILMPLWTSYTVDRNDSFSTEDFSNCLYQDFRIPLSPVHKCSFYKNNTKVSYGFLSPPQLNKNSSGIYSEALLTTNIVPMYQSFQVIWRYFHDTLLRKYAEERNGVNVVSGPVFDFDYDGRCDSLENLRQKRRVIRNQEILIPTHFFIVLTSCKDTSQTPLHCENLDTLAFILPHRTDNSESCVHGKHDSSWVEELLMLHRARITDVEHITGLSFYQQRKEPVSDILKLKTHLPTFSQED

[4] = system: MCF7; assay: Antiproliferative activity against human MCF7 cells assessed as cell viability at 10 uM after 72 hrs by MTT assay relative to control; format: functional; conditions: MCF7, 72 h, read-out: Activity
[5] = system: A549; assay: Antiproliferative activity against human A549 cells assessed as cell viability at 10 uM after 72 hrs by MTT assay relative to control; format: functional; conditions: A549, 72 h, read-out: Activity
[6] = molecular target: T3, Ectonucleotide pyrophosphatase/phosphodiesterase family member 1 (Homo sapiens, UniProt P22413); assay: Inhibition of human NPP1 expressed in COS-7 cell membranes assessed as reduction in p-nitrophenol production using pNP-TMP as substrate preincubated with enzyme for 15 mins followed by substrate addition and measured after 35 mins
T3 sequence (P22413 whole entry): T2 sequence (whole entry)

[7] = system: MCF7; assay: Antiproliferative activity against human MCF7 cells assessed as reduction in cell viability after 48 hrs by MTT assay; format: functional, cell-based; conditions: MCF7, 48 h
[8] = system: HT-29; assay: Antiproliferative activity against human HT-29 cells assessed as reduction in cell viability after 48 hrs by MTT assay; format: functional, cell-based; conditions: HT-29, 48 h
[9] = system: A549; assay: Antiproliferative activity against human A549 cells assessed as reduction in cell viability after 48 hrs by MTT assay; format: functional, cell-based; conditions: A549, 48 h
[10] = Cytotoxicity against human F180 cells assessed as reduction in cell viability after 48 hrs by MTT assay; format: cell-based; conditions: F180, 48 h
[11] = Selectivity index, ratio of IC50 for human F180 cells to IC50 for human HT-29 cells
[12] = molecular target: T4, Ectonucleotide pyrophosphatase/phosphodiesterase family member 3 (Homo sapiens) (UniProt O14638); assay: Inhibition of human NPP3 expressed in COS-7 cell membranes assessed as reduction in p-nitrophenol production at 100 uM using pNP-TMP as substrate preincubated with enzyme for 15 mins followed by substrate addition and measured after 35 mins relative to control
T4 sequence (whole entry): T1 sequence (O14638 whole entry)

Compound	IC50 [1] [µM]	inhibition [3] [%]	IC50 [6] [µM]	IC50 [7] [µM]	IC50 [8] [µM]	IC50 [9] [µM]	inhibition [12] [%]	viability at 10 µM [2] [%]	viability at 10 µM [4] [%]	viability at 10 µM [5] [%]	IC50 [10] [µM]	Ratio IC50 [11]
COc1ccc(S(=O)(=O)Oc2ccc(-c3sc4cc(OS(=O)(=O)c5ccc(OC)cc5)ccc4c3C(=O)c3ccc(OCCN4CCCCC4)cc3)cc2)cc1	1.24	–	0.42	–	–	–	–	89.3	127	99.4	–	–
CC(C)(C)c1ccc(S(=O)(=O)Oc2ccc(-c3sc4cc(OS(=O)(=O)c5ccc(C(C)(C)C)cc5)ccc4c3C(=O)c3ccc(OCCN4CCCCC4)cc3)cc2)cc1	0.71	–	0.29	3.2	1.4	6.7	–	9.9	12.1	7.3	11.8	8.43
Cc1ccc(S(=O)(=O)Oc2ccc(-c3sc4cc(OS(=O)(=O)c5ccc(C)cc5)ccc4c3C(=O)c3ccc(OCCN4CCCCC4)cc3)cc2)cc1	–	–	0.45	–	–	–	38.5	72.4	116	95.2	–	–
O=C(c1ccc(OCCN2CCCCC2)cc1)c1c(-c2ccc(OS(=O)(=O)c3cccc4cccnc34)cc2)sc2cc(OS(=O)(=O)c3cccc4cccnc34)ccc12	–	28.7	–	–	–	–	42.5	110	129	99.2	–	–
O=C(c1ccc(OCCN2CCCCC2)cc1)c1c(-c2ccc(OS(=O)(=O)c3ccc(C(F)(F)F)cc3)cc2)sc2cc(OS(=O)(=O)c3ccc(C(F)(F)F)cc3)ccc12	0.23	–	4.01	> 15	4	> 15	–	17.4	41	67.7	> 15	–

The next lines start with results.

IC50 [1] [µM]	inhibition [3] [%]	IC50 [6] [µM]	IC50 [7] [µM]	IC50 [8] [µM]	IC50 [9] [µM]	inhibition [12] [%]	Compound	viability at 10 µM [2] [%]	viability at 10 µM [4] [%]	viability at 10 µM [5] [%]	IC50 [10] [µM]	Ratio IC50 [11]
0.49	30	–	–	–	–	–	O=C(c1ccc(OCCN2CCCCC2)cc1)c1c(-c2ccc(OS(=O)(=O)C3CCCCC3)cc2)sc2cc(OS(=O)(=O)C3CCCCC3)ccc12	109	136	104	–	–
–	–	–	> 15	> 15	> 15	–	O=C(c1ccc(OCCN2CCCCC2)cc1)c1c(-c2ccc(O)cc2)sc2cc(O)ccc12 [RALOXIFENE HYDROCHLORIDE]	107	77.7	87	> 15	–
–	–	4.24	3.4	1.5	> 15	43.7	CN(C)S(=O)(=O)Oc1ccc(-c2sc3cc(OS(=O)(=O)N(C)C)ccc3c2C(=O)c2ccc(OCCN3CCCCC3)cc2)cc1	25	58	91.8	14	–
1.81	–	8.88	–	–	–	–	O=C(c1ccc(OCCN2CCCCC2)cc1)c1c(-c2ccc(OS(=O)(=O)c3ccc(F)cc3)cc2)sc2cc(OS(=O)(=O)c3ccc(F)cc3)ccc12	108	115	105	–	–
1.55	36	–	6	1.7	13	–	CNS(=O)(=O)Oc1ccc(-c2sc3cc(OS(=O)(=O)NC)ccc3c2C(=O)c2ccc(OCCN3CCCCC3)cc2)cc1	11.5	37.2	58.9	> 15	–
1.51	35.1	–	–	–	–	–	CCS(=O)(=O)Oc1ccc(-c2sc3cc(OS(=O)(=O)CC)ccc3c2C(=O)c2ccc(OCCN3CCCCC3)cc2)cc1	62.2	118	90.2	–	–
